SMILES strings stand for the structures.

The record followed here is ChEMBL document CHEMBL5252509, “In depth analysis of kinase cross screening data to identify chemical starting points for inhibition of the Nek family of kinases” (Medchemcomm, 2018).

The target of test [1] is T1, Serine/threonine-protein kinase Nek9 (Homo sapiens) (UniProt Q8TD19).
T1 sequence (whole entry): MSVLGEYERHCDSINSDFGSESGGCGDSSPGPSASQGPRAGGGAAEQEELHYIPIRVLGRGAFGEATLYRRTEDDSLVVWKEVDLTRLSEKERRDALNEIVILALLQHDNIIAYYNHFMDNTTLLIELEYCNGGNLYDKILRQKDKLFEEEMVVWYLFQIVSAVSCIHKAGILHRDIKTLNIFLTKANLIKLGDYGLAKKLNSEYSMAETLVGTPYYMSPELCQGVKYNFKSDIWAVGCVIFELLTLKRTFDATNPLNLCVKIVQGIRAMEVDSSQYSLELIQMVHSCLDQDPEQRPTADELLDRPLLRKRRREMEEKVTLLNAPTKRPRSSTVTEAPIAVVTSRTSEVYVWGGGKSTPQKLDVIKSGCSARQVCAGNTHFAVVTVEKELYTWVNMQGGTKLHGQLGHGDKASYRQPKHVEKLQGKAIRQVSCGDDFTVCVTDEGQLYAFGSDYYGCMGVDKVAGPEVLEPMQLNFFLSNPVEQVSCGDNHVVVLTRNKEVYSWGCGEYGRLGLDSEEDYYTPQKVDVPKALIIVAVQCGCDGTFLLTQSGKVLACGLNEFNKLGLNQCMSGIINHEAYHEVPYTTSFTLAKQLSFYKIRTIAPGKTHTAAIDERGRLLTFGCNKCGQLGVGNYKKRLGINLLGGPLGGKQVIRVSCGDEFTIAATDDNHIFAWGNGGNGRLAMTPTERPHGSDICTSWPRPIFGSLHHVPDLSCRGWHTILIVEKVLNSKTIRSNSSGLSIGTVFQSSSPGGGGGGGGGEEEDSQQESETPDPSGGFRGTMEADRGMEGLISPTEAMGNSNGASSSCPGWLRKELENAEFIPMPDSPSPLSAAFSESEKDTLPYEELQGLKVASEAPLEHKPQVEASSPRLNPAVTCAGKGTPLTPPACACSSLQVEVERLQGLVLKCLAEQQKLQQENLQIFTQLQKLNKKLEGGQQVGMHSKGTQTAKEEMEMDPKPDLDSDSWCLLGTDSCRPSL
The test is described as follows: Inhibition of NEK9 (unknown origin) at 1 uM relative to control.

The target in test [2] is T2, Serine/threonine-protein kinase Nek10 (Homo sapiens) (UniProt Q6ZWH5).
T2 sequence (whole entry): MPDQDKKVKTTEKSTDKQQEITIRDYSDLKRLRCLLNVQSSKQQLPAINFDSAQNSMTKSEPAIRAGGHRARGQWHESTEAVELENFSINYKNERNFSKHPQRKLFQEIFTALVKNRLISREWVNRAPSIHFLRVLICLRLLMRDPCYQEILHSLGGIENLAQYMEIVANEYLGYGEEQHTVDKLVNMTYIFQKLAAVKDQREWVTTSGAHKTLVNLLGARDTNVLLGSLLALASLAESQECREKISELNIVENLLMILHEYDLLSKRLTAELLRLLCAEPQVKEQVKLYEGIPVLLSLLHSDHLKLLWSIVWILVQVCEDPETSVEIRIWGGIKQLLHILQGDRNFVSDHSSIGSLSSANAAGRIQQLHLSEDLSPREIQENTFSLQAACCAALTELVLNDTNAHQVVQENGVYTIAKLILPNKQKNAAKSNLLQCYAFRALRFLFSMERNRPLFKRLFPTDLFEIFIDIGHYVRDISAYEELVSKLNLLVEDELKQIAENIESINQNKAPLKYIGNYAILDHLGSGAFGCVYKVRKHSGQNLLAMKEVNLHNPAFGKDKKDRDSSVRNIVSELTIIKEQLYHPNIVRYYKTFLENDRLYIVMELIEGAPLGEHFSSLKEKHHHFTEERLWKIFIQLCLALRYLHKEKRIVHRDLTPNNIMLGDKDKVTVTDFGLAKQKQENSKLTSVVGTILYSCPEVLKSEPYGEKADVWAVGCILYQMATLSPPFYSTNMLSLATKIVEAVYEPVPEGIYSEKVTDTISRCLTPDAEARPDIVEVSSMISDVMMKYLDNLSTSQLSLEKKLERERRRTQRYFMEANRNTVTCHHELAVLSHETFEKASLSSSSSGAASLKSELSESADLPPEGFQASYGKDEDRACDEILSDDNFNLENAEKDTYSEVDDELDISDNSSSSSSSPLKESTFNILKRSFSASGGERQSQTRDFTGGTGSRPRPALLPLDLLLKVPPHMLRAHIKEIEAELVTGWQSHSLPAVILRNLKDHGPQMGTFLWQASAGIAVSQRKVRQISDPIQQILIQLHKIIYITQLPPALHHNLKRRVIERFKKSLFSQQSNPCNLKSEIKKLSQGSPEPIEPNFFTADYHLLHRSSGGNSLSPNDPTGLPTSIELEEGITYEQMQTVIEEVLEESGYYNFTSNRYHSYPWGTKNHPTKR
The experiment in a line: Inhibition of NEK10 (unknown origin) at 1 uM relative to control.

The target of test [3] is T3, Serine/threonine-protein kinase Nek2 (Homo sapiens) (UniProt P51955).
T3 sequence (whole entry): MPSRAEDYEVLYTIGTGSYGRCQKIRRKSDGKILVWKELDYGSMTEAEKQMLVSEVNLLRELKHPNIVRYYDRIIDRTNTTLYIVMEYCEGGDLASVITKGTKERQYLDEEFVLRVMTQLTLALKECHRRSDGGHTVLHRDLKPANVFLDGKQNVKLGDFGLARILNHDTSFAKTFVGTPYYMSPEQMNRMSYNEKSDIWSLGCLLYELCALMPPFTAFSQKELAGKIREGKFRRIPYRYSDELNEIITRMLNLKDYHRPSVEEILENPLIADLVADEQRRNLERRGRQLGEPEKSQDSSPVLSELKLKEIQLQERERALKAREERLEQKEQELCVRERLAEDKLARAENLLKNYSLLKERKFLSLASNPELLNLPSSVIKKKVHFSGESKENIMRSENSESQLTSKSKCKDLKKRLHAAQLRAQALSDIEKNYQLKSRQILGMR
The experiment in a line: Inhibition of NEK2 (unknown origin) at 10 uM relative to control.

As a reminder, the inhibition is the drop in the measured response relative to a control, in per cent. Regarding `Cc1ccc(CC(=O)N2CCc3cc(-c4cn(C)c5ncnc(N)c45)ccc32)cc1`, the inhibition in test [1] came to 20%; in test [2], 0%.

Take `O=c1[nH]ccc2nc(N[C@@H]3CCCNC3)nc(Nc3ccc(S(=O)(=O)N4CCOCC4)cc3)c12`: the inhibition in test [1] was determined as 86%; in test [2], 4.4%.

For the compound `CC(C)Oc1ccc2c(-c3ccnc(Nc4ccc(N5CCN(C)CC5)cc4)n3)cnn2n1`, the inhibition in test [1] was determined as 7.1%; in test [2], 2.4%.

As to `Nc1ncc(-c2cn[nH]c2)c2scc(-c3ccc4c(c3)CCN4C(=O)Cc3ccccc3)c12`, the inhibition amounted to 0% in test [1] and 22% in test [2].

`COc1ccc(Nc2ncc(C#N)c(Nc3ccccc3C(N)=O)n2)cc1N1CCN(C)CC1`: the inhibition is 1.8% in test [1] and 5.9% in test [2].

For `c1ccc(-c2ccnc3[nH]ccc23)cc1`, the inhibition in test [1] was 0%; in test [2] it was 30%.

As for `CN(C)CCNS(=O)(=O)c1ccc(-c2ccnc3[nH]ccc23)cc1`, the inhibition was determined as 0% in test [1] and 17% in test [2].

As for `O=C1NC(=O)/C(=C/c2ccc3nccc(-c4ccncc4)c3c2)S1`, the % control in test [3] came to 64%.

In test [3], `CN(C)C/C=C/C(=O)Nc1cccc(C(=O)Nc2ccc(Nc3nccc(-c4cccnc4)n3)cc2)c1` came in with a % control of 86%.

Turning to `Nc1ncc(-c2cccnc2)c2scc(-c3ccc4c(c3)CCN4C(=O)Cc3ccccc3)c12`, the inhibition in test [1] amounted to 28%; in test [2], 14%.

Regarding `CS(=O)(=O)Nc1ccc(-c2ccnc3[nH]ccc23)cc1`, the inhibition was 14% in test [1] and 71% in test [2].

For `NCCNS(=O)(=O)c1ccc(-c2ccnc3[nH]ccc23)cc1`, the inhibition in test [1] was found to be 22%; in test [2], 69%.

Take `COc1cccc(C2=C(Nc3cccc(O)c3)C(=O)NC2=O)c1`: the inhibition in test [1] was 15%; in test [2] it was 67%.

Take `O=S(=O)(c1ccc(-c2ccnc3[nH]ccc23)cc1)N1CCCC1`: the inhibition in test [1] stood at 28%; in test [2], 15%.

With `Cn1cc(-c2ccc3c(c2)CCN3C(=O)Cc2cccc(F)c2)c2c(N)ncnc21`, the inhibition is 0% in test [1] and 22% in test [2].

Consider `Cn1cc(-c2ccc3c(c2)CCN3C(=O)Cc2ccccc2Cl)c2c(N)ncnc21`, for which the inhibition in test [1] stood at 33%; in test [2], 0%.

In the case of `Cn1cc(-c2ccc3c(c2)CCN3C(=O)Cc2cccc(Cl)c2)c2c(N)ncnc21`, the inhibition in test [1] and in test [2] was 18% each time.

Take `CC(C)c1nc(-c2cccc(NS(=O)(=O)c3c(F)cccc3F)c2F)c(-c2ccnc(Nc3ccc(N4CCOCC4)nc3)n2)s1`: the figures for the inhibition in test [1] and in test [2] were 6.4% and 100%, respectively.

Turning to `COc1cccc(C2=C(Nc3cccc(Cl)c3)C(=O)NC2=O)c1`, the inhibition in test [1] amounted to 1%; in test [2] it was 73%.

Regarding `O=C1NC(=O)C(c2ccccc2Cl)=C1Nc1cccc(Cl)c1`, the figures for the inhibition in test [1] and in test [2] were 20% and 51%, respectively.

Take `Cn1cc(-c2ccc3c(c2)CCN3C(=O)Cc2cccc(C(F)(F)F)c2)c2c(N)ncnc21`: the inhibition in test [1] was determined as 8%; in test [2], 18%.

`COc1cccc(C2=C(Nc3ccc(Cl)c(C(=O)O)c3)C(=O)NC2=O)c1`: the inhibition in test [1] amounted to 0%; in test [2] it was 73%.

Regarding `COc1cc(Nc2ncc3c(C)nc(-c4cc5ccccc5[nH]4)n3n2)cc(OC)c1OC`, the inhibition in test [1] is 70%; in test [2], 0%.

`Cn1cc(-c2ccc3c(c2)CCN3C(=O)Cc2cc(F)cc(C(F)(F)F)c2)c2c(N)ncnc21`: the results for the inhibition in test [1] and in test [2] were 25% and 6%, respectively.

In test [3], `Cc1cc(NC(=O)c2cccc(NC(=O)/C=C/CN(C)C)c2)ccc1Nc1nccc(-c2cccnc2)n1` showed a % control of 100%.

On to `COc1cccc(CC(=O)N2CCc3cc(-c4cn(C)c5ncnc(N)c45)ccc32)c1`, for which the inhibition in test [1] is 25%; in test [2] it was 7%.

For the compound `CC(C)c1nc(-c2cccc(NS(=O)(=O)c3ccccc3)c2)c(-c2ccnc(Nc3ccc4c(c3)CN(C)CC4)n2)s1`, the inhibition came out at 49% in test [1] and 100% in test [2].

As to `COc1ccc(C2=C(Nc3cccc(C(=O)O)c3)C(=O)NC2=O)cc1`, the inhibition in test [1] and in test [2] was 2% each time.

`CN(C)C/C=C/C(=O)Nc1cccc(C(=O)Nc2ccc(Nc3nccc(-c4c(-c5ccccc5)nn5ccccc45)n3)cc2)c1` yielded a % control in test [3] of 93%.

`Nc1nccc2scc(-c3ccc4c(c3)CCN4C(=O)Cc3ccccc3)c12`: the results for the inhibition in test [1] and in test [2] were 18% and 9%, respectively.

Compound `Cc1ccc(NC(=O)c2ccc(NC(=O)/C=C/CN(C)C)cc2)cc1Nc1nccc(-c2cccnc2)n1` displayed a % control in test [3] of 100%.

In the case of `Nc1nccc2scc(-c3ccc4c(c3)CCN4C(=O)Cc3cc(F)ccc3F)c12`, the inhibition in test [1] was determined as 4%; in test [2] it was 12%.

For `Cn1cc(-c2ccc3c(c2)CCN3C(=O)Cc2cc(F)cc(F)c2F)c2c(N)ncnc21`, the inhibition was found to be 8% in test [1] and 10% in test [2].

`Fc1cc(-c2cc[nH]/c(=N/c3ccc(-n4cnc(N5CCOCC5)n4)cc3)n2)cc(N2CCOCC2)c1` displayed a % control in test [3] of 94%.

On to `CN(C)C/C=C/C(=O)Nc1ccc(C(=O)Nc2cccc(Nc3nccc(-c4cccnc4)n3)c2)cc1`, for which the % control in test [3] worked out at 1.1%.

`CN(C)C/C=C/C(=O)Nc1cccc(C(=O)Nc2ccc(Nc3nccc(/C(C#N)=C4\Nc5ccccc5S4)n3)cc2)c1` came in with a % control in test [3] of 99%.

For `Cn1cc(-c2cnc(N)c3c(-c4ccc5c(c4)CCN5C(=O)Cc4ccccc4)csc23)cn1`, the inhibition was 0% in test [1] and 22% in test [2].

On to `Cc1ccccc1CC(=O)N1CCc2cc(-c3cn(C)c4ncnc(N)c34)ccc21`, for which the inhibition in test [1] and in test [2] was 0% throughout.
